In patent US8546427B2, “Tetrahydroquinoline derivatives” (Hoffmann-La Roche Inc., priority 2010, dated 2013):

Tested on: AMP-activated protein kinase (AMPK)
Experiment: ADP Quest assay for AMPK activators
Format: biochemical
Parameters: key: fold AMPK activation at 30 μM activator vs none
Settings: fold of AMPK activation to phosphorylate SAMS peptide without and with an activator at the concentration of 30 μM
Description: This method evaluates AMP-activated protein kinase (AMPK) activity through detecting the accumulation of ADP product using an ADP Quest kit and determining the E30 values of the small molecular AMPK activators. ADP Quest kit (DiscoveRx, Fremont, Calif.) is stored at −20° C. before use. Before an experiment, thaw the kit (include assay buffer, ADP standard solution, reagent A and reagent B) and equilibrate to room temperature. Dispense the ADP Quest reagents into single-use aliquots and store at −20° C. The compound concentrations typically range from 0 μM to 100 μM by 2-fold dilution. AMP concentrations range from 0.98 μM to 1 mM as the reference control. In an assay, thaw and equilibrate the assay buffer, reagent A and reagent B to room temperature for 30 minutes prior to use. Mix ATP, SAMS peptide substrate and compound, and place them into the 384-well assay plate. Add reagent A and B based on the assay kit protocol. Incubate the assay plate at room temperature for 30 minutes after addition the mixture followed by the addition of AMPK protein (Invitrogen, CA) to initiate the AMPK phosphorylation reaction. At the same time, reactions with AMPK activator AMP in the absence of enzyme is included as blank control. The reaction fluorescence signal is monitored and recorded on Envision in kinetic mode with the excitation wavelength of 530 nm and emission wavelength of 590 nm. The E30 value, defined as the fold of AMPK activation to phosphorylate SAMS peptide without and with an activator at the concentration of 30 μM, is calculated and analyzed using Prism 5.0.

SMILES | E30
CC1(C)CC(c2ccccc2NS(=O)(=O)c2cccnc2)Nc2ccc(Cl)cc21 (stereo not drawn) [Example-36, Pyridine-3-sulfonic acid [2-(6-chloro-4,4-dimethyl-1,2,3,4-tetrahydro-quinolin-2-yl)-phenyl]-amide] | 1.34
CC1(C)CC(c2ccccc2NC(=O)c2cccc(F)c2)Nc2ccc(C(=O)O)cc21 (stereo not drawn) [Example-37, 2-[2-(3-Fluoro-benzoylamino)-phenyl]-4,4-dimethyl-1,2,3,4-tetrahydro-quinoline-6-carboxylic acid] | 1.20
CC1(C)CC(c2ccccc2NS(=O)(=O)c2ccccc2F)Nc2ccc(C(=O)O)cc21 (stereo not drawn) [Example-39, 2-[2-(2-Fluoro-benzenesulfonylamino)-phenyl]-4,4-dimethyl-1,2,3,4-tetrahydro-quinoline-6-carboxylic acid] | 2.69
CC1(C)CC(c2ccccc2NS(=O)(=O)c2ccc(F)cc2)Nc2ccc(C(=O)O)cc21 (stereo not drawn) [Example-40, 2-[2-(4-Fluoro-benzenesulfonylamino)-phenyl]-4,4-dimethyl-1,2,3,4-tetrahydro-quinoline-6-carboxylic acid] | 3.01
CC1(C)CC(c2ccccc2NS(=O)(=O)c2ccccc2)Nc2ccc(C(=O)O)cc21 (stereo not drawn) [Example-41, 2-(2-Benzenesulfonylamino-phenyl)-4,4-dimethyl-1,2,3,4-tetrahydro-quinoline-6-carboxylic acid] | 2.63
CC1(C)CC(c2ccccc2NS(=O)(=O)c2cccc(F)c2)Nc2ccc(C(=O)O)cc21 (stereo not drawn) [Example-42, 2-[2-(3-Fluoro-benzenesulfonylamino)-phenyl]-4,4-dimethyl-1,2,3,4-tetrahydro-quinoline-6-carboxylic acid] | 2.41
CC1(C)CC(c2ccccc2NS(=O)(=O)c2cccc(F)c2)Nc2ccc(C(F)(F)F)cc21 (stereo not drawn) [Example-43, N-[2-(4,4-Dimethyl-6-trifluoromethyl-1,2,3,4-tetrahydro-quinolin-2-yl)-phenyl]-3-fluoro-benzenesulfonamide] | 1.14
CC1(C)CC(c2ccccc2NS(=O)(=O)c2ccccc2F)Nc2ccc(C(F)(F)F)cc21 (stereo not drawn) [Example-44, N-[2-(4,4-Dimethyl-6-trifluoromethyl-1,2,3,4-tetrahydro-quinolin-2-yl)-phenyl]-2-fluoro-benzenesulfonamide] | 1.15
CC1(C)CC(c2ccccc2NS(=O)(=O)c2ccc(F)cc2)Nc2ccc(C(F)(F)F)cc21 (stereo not drawn) [Example-45, N-[2-(4,4-Dimethyl-6-trifluoromethyl-1,2,3,4-tetrahydro-quinolin-2-yl)-phenyl]-4-fluoro-benzenesulfonamide] | 1.15
CCS(=O)(=O)Nc1ccccc1C1CC(C)(C)c2cc(C(F)(F)F)ccc2N1 (stereo not drawn) [Example-46, Ethanesulfonic acid [2-(4,4-dimethyl-6-trifluoromethyl-1,2,3,4-tetrahydro-quinolin-2-yl)-phenyl]-amide] | 1.20
CC(C)S(=O)(=O)Nc1ccccc1C1CC(C)(C)c2cc(C#N)ccc2N1 (stereo not drawn) [Example-50, Propane-2-sulfonic acid [2-(6-cyano-4,4-dimethyl-1,2,3,4-tetrahydro-quinolin-2-yl)-phenyl]-amide] | 1.19
CC1(C)CC(c2cccc(NS(=O)(=O)c3ccc(F)cc3)c2)Nc2ccc(C(F)(F)F)cc21 (stereo not drawn) [Example-58, N-[3-(4,4-Dimethyl-6-trifluoromethyl-1,2,3,4-tetrahydro-quinolin-2-yl)-phenyl]-4-fluoro-benzenesulfonamide] | 1.34
